Test results as given in PubChem BioAssay AID2060329 (Molecular Pharmacology Branch, DTP, NCI, 2025).

Tested on: MCF7 multi-cell spheroids with HUVEC/MSC, viability
Test: Anticancer human tumor MCF7 cell line growth inhibition [IpAb];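 note: spheroids exposed to agents for seven days before readout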
Settings: for IC50: curve of first compound; for viability, T/C: stronger effect = lower value
Summary of the method: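 Combinations with ipatasertib or abemaciclib were tested on tumour spheroids holding HUVEC (25%) and MSC (15%) alongside 60% malignant cells. Top concentration was at or near clinical Cmax (10 microM if undefined), descending in half-log steps.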

[1] = second compound 0.01 µM, first compound 0.0316 µM
[2] = second compound 0.01 µM, first compound 0.1 µM
[3] = second compound 0.0316 µM, first compound 0.0316 µM
[4] = second compound 0.0316 µM, first compound 0.1 µM
[5] = second compound 0.1 µM, first compound 0.0316 µM
[6] = second compound 0.1 µM, first compound 0.1 µM
[7] = second compound 0.316 µM, first compound 0.0316 µM
[8] = second compound 0.316 µM, first compound 0.1 µM
[9] = second compound 1 µM, first compound 0.0316 µM
[10] = second compound 1 µM, first compound 0.1 µM

For `Cn1ncc(Cl)c1-c1cc(C(=O)NC(CN)Cc2cccc(F)c2)sc1Cl` (stereo not given) + CCN1CCN(Cc2ccc(Nc3ncc(F)c(-c4cc(F)c5nc(C)n(C(C)C)c5c4)n3)nc2)CC1, the IC50 (second compound 0.01 µM) was 847 nM, the IC50 (second compound 0.0316 µM) was 758 nM and the IC50 (second compound 0.1 µM) was 838 nM. The IC50 (second compound 0.316 µM) was 1320 nM, the IC50 (second compound 1 µM) was 715 nM and the viability, T/C [1] was 93%. The viability, T/C [2] was 85.9%, the viability, T/C (second compound 0.01 µM, first compound 0.316 µM) was 65.2% and the viability, T/C (second compound 0.01 µM, first compound 1 µM) was 53.2%. For the same compound, the viability, T/C (second compound 0.01 µM, first compound 3.16 µM) was 15%, the viability, T/C (second compound 0.01 µM, first compound 10 µM) was 0.18% and the viability, T/C [3] was 91.9%. The viability, T/C [4] was 89.6%, the viability, T/C (second compound 0.0316 µM, first compound 0.316 µM) was 70.7% and the viability, T/C (second compound 0.0316 µM, first compound 1 µM) was 46.8%. It also gave a viability, T/C (second compound 0.0316 µM, first compound 3.16 µM) of 4.25%, a viability, T/C (second compound 0.0316 µM, first compound 10 µM) of 0.13% and a viability, T/C [5] of 94.7%. For the same compound, the viability, T/C [6] was 86.3%, the viability, T/C (second compound 0.1 µM, first compound 0.316 µM) was 69% and the viability, T/C (second compound 0.1 µM, first compound 1 µM) was 53.1%. The viability, T/C (second compound 0.1 µM, first compound 3.16 µM) was 5.55%, the viability, T/C (second compound 0.1 µM, first compound 10 µM) was 0.15% and the viability, T/C [7] was 95.7%. The viability, T/C [8] was 88.4%, the viability, T/C (second compound 0.316 µM, first compound 0.316 µM) was 78.8% and the viability, T/C (second compound 0.316 µM, first compound 1 µM) was 64.5%. It also gave a viability, T/C (second compound 0.316 µM, first compound 3.16 µM) of 7.44%, a viability, T/C (second compound 0.316 µM, first compound 10 µM) of 0.17% and a viability, T/C [9] of 98.7%. It also gave a viability, T/C [10] of 81.1%, a viability, T/C (second compound 1 µM, first compound 0.316 µM) of 62.9% and a viability, T/C (second compound 1 µM, first compound 1 µM) of 56.2%. For the same compound, the viability, T/C (second compound 1 µM, first compound 3.16 µM) was 0.7% and the viability, T/C (second compound 1 µM, first compound 10 µM) was 0.23%.

Work on `Cn1ncnc1[C@H]1c2n[nH]c(=O)c3cc(F)cc(c23)N[C@@H]1c1ccc(F)cc1` + CCN1CCN(Cc2ccc(Nc3ncc(F)c(-c4cc(F)c5nc(C)n(C(C)C)c5c4)n3)nc2)CC1 yielded an IC50 (second compound 0.01 µM) greater than 100 nM, an IC50 (second compound 0.0316 µM) greater than 100 nM and an IC50 (second compound 0.1 µM) greater than 100 nM. For the same compound, the IC50 (second compound 0.316 µM) was greater than 100 nM, the IC50 (second compound 1 µM) was greater than 100 nM and the viability, T/C (second compound 0.01 µM, first compound 0.000316 µM) was 95.3%. It also gave a viability, T/C (second compound 0.01 µM, first compound 0.001 µM) of 102%, a viability, T/C (second compound 0.01 µM, first compound 0.00316 µM) of 115% and a viability, T/C (second compound 0.01 µM, first compound 0.01 µM) of 98.6%. It also gave a viability, T/C [1] of 106%, a viability, T/C [2] of 92.5% and a viability, T/C (second compound 0.0316 µM, first compound 0.000316 µM) of 98.6%. It also gave a viability, T/C (second compound 0.0316 µM, first compound 0.001 µM) of 107%, a viability, T/C (second compound 0.0316 µM, first compound 0.00316 µM) of 83.8% and a viability, T/C (second compound 0.0316 µM, first compound 0.01 µM) of 89.4%. It also gave a viability, T/C [3] of 100%, a viability, T/C [4] of 88.1% and a viability, T/C (second compound 0.1 µM, first compound 0.000316 µM) of 114%. The viability, T/C (second compound 0.1 µM, first compound 0.001 µM) was 103%, the viability, T/C (second compound 0.1 µM, first compound 0.00316 µM) was 107% and the viability, T/C (second compound 0.1 µM, first compound 0.01 µM) was 87.5%. It also gave a viability, T/C [5] of 85.1%, a viability, T/C [6] of 85.3% and a viability, T/C (second compound 0.316 µM, first compound 0.000316 µM) of 108%. The viability, T/C (second compound 0.316 µM, first compound 0.001 µM) was 106%, the viability, T/C (second compound 0.316 µM, first compound 0.00316 µM) was 93.4% and the viability, T/C (second compound 0.316 µM, first compound 0.01 µM) was 97.4%. It also gave a viability, T/C [7] of 90.2%, a viability, T/C [8] of 88.7% and a viability, T/C (second compound 1 µM, first compound 0.000316 µM) of 100%. The viability, T/C (second compound 1 µM, first compound 0.001 µM) was 105%, the viability, T/C (second compound 1 µM, first compound 0.00316 µM) was 84.4% and the viability, T/C (second compound 1 µM, first compound 0.01 µM) was 100%. It also gave a viability, T/C [9] of 85.3% and a viability, T/C [10] of 85.7%.
